Laboratory results reported in patent US10544153B2, “Benzoic acid, benzoic acid derivatives and heteroaryl carboxylic acid conjugates of oxycodone, prodrugs, methods of making and use thereof” (KemPharm, Inc., priority 2014, dated 2020).

Assays:
[1] = Intranasal PK in rats: plasma concentrations of released oxymorphone by LC-MS/MS; conditions: for AUC / Cmax / tmax: Table 6, equivalent to 2 mg/kg freebase oxycodone; for %-AUC of OC / %-Cmax of OC / %-tmax of OC: Table 6, relative to oxycodone (OC)
[2] = Oral PK in rats: plasma concentrations of released oxycodone by LC-MS/MS; conditions: for AUC / Cmax / tmax: conjugate equivalent to 2 mg/kg freebase oxycodone; for %-AUC of OC / %-Cmax of OC / %-tmax of OC: relative to oxycodone (OC)
[3] = Oral PK in rats: plasma concentrations of oxymorphone by LC-MS/MS; conditions: oxymorphone released; for AUC / Cmax / tmax: conjugate equivalent to 2 mg/kg freebase oxycodone; for %-AUC of OC / %-Cmax of OC / %-tmax of OC: relative to oxycodone (OC)
[4] = Tamper resistance: percent of OC released under tampering conditions, LC-MS/MS; format: physicochemical; conditions: RT
Protocol: Effective abuse deterrent forms of drugs of abuse can also be resistant to chemical tampering. The prodrugs in the present technology also impart this characteristic. Several common tampering scenarios were employed and percent of OC released were determined by liquid chromatography with tandem mass spectrometry (LC-MS/MS). The results as shown in Table 7 indicated a very high degree of tamper resistance in the example OC prodrugs, releasing little to no OC.

[5] = Intranasal PK in rats (Table 4); conditions: title: oxymorphone released (released oxycodone); for Cmax / tmax: equivalent to 2 mg/kg freebase oxycodone; for %-Cmax of OC / %-tmax of OC: relative to oxycodone (OC)

SMILES	AUC [1] [ng·h/mL]	Cmax [1] [ng/mL]	tmax [1] [min]	%-AUC of OC [1] [%]	%-Cmax of OC [1] [%]	%-tmax of OC [1] [%]	AUC [2] [ng·h/mL]	Cmax [2] [ng/mL]	tmax [2] [min]	%-AUC of OC [2] [%]	%-Cmax of OC [2] [%]	%-tmax of OC [2] [%]	AUC [3] [ng·h/mL]	Cmax [3] [ng/mL]	tmax [3] [min]	%-AUC of OC [3] [%]	%-Cmax of OC [3] [%]	%-tmax of OC [3] [%]	percent of OC released ([4]; 1N HCl, 1 hour) [%]	percent of OC released ([4]; 5% Bicarbonate, 1 hour) [%]	also measured
COc1ccc2c3c1OC1C(OC(=O)C(C)c4ccc(CC(C)C)cc4)=CCC4(O)C(C2)N(C)CCC314 (mixture of isomers) [Conjugate 6-lbu-OC]	0.7	1.0	30	11	11	143	77.9	39.5	26.4	83	62	47	8.4	3.7	69	83	59	131	2	2	percent of OC released ([4]; Water, 1 hour): 0%; percent of OC released ([4]; Water, 24 hours): 0%; Cmax [5]: 131.7 ng/mL; tmax [5]: 4.98 min; %-Cmax of OC [5]: 10%; %-tmax of OC [5]: 100%
COc1ccc2c3c1O[C@H]1C(OC(=O)c4ccc(O)cc4)=CC[C@@]4(O)[C@@H](C2)N(C)CC[C@]314 [Conjugate 4-OH-Bz-OC]	11.8	19.0	27	58	61	90	53.5	35.4	45	58	69	188	3.3	2.1	15	55	49	100	0	0	percent of OC released ([4]; Water, 1 hour): 0%; percent of OC released ([4]; Water, 24 hours): 0%; Cmax [5]: 759.2 ng/mL; tmax [5]: 4.98 min; %-Cmax of OC [5]: 41%; %-tmax of OC [5]: 100%
COc1ccc(C(=O)OC2=CC[C@@]3(O)[C@H]4Cc5ccc(OC)c6c5[C@@]3(CCN4C)[C@H]2O6)cc1 [Conjugate 4-MeO-Bz-OC]	7.2	9.4	22	65	60	105	55.5	28.5	15	59	61	33	6.7	4.7	15	51	63	83	<1	<1	percent of OC released ([4]; Water, 1 hour): 0%; percent of OC released ([4]; Water, 24 hours): <1%; Cmax [5]: 949.4 ng/mL; tmax [5]: 4.98 min; %-Cmax of OC [5]: 48%; %-tmax of OC [5]: 100%
